{
  "source": "patent US20190365743A1",
  "about": "“HEDGEHOG PATHWAY INHIBITION FOR TREATMENT OF HIGH-RISK BASAL CELL CARCINOMA OR HIGH-RISK BASAL CELL CARCINOMA NEVUS SYNDROME” (HEDGEPATH PHARMACEUTICALS, INC., priority 2018, published 2019)",
  "test": "plasma trough level of itraconazole required for clinical benefit, and side effects of high doses, in humans with cancer",
  "assay_type": "in vivo",
  "method": "In particular, the minimum plasma trough level after 4 weeks of therapy required to have a clinically significant effect was at least 1000 ng/ml. […] These side effects associated with these high doses of itraconazole can be effectively managed by giving a selective mineralocorticoid antagonist, such as eplerenone. Accordingly, in some embodiments, the method further comprises administering eplerenone or other mineralocorticoid inhibitor.",
  "data": [
    {"smiles": "CCC(C)n1ncn(-c2ccc(N3CCN(c4ccc(OCC5COC(Cn6cncn6)(c6ccc(Cl)cc6Cl)O5)cc4)CC3)cc2)c1=O", "note": "(centres unmarked) [itraconazole]", "values": [
      {"measurement": "side-effects peculiar to high doses", "setting": "high doses giving plasma trough of at least 1000 ng/ml", "value": "hypertension, peripheral edema, and hypokalemia"},
      {"measurement": "concentration at 4 weeks", "setting": "human, plasma, after 4 weeks of therapy, humans with cancer, read-out: minimum plasma trough level required to have a clinically significant effect", "value": "≥ 1000", "unit": "ng/mL"}
    ]}
  ]
}
